In brackets after ≈: the same amount, converted by molar mass.
Key:
[1] = test system: Anas platyrhynchos; conditions: chronic/long-term
[2] = test system: Apis mellifera; conditions: acute, mortality
[3] = test system: Bibionidae; conditions: chronic/long-term, other
[4] = test system: Colinus virginianus; conditions: acute, oral, mortality
[5] = test system: Folsomia candida; conditions: chronic/long-term; mortality
[6] = test system: Neomysis kadiakensis; conditions: chronic/long-term; duration: 28 days; reproduction
[7] = test system: Oncorhynchus mykiss
[8] = test system: Rattus norvegicus
[9] = test system: Tagia sp.
[10] = test system: Aphidius rhopalosiphi; assay: LR50; higher = less toxic; conditions: not reported; other

CO/C=C(/C(=O)OC)c1ccccc1COc1cccc(C(F)(F)F)n1 [Picoxystrobin] showed an NOEL [1] of 110 mg/kg-day, an LD50 ([2]; dermal) of over 200 µg/piece and an LD50 ([2]; oral, unspecified) of over 200 µg/piece. It also gave an NOEC ([3]; duration: 21 days) of 0.0084 mg/L, an NOEC ([3]; duration: 28 days) of 5 mg/kg and an LD50 ([4]; diet) of over 1770 mg/kg-day. It also gave an LD50 [4] of over 2250 mg/kg, an NOEC [5] of 12.5 mg/kg and an NOEC [6] of 0.0036 mg/L. For the same molecule, the LC50 ([7]; acute, duration: 96 hours, mortality) was 0.05 µg/mL (≈ 0.136 µM), the NOEC ([7]; chronic/long-term, duration: 28 days, growth) was 0.01 mg/L and the LD50 ([8]; acute, mortality) was over 5000 mg/kg. For the same molecule, the NOAEL ([8]; chronic) was 21.8 mg/kg-day, the LC50 ([9]; acute, mortality) was 3.35 mg/kg and the NOEC ([9]; chronic/long-term, reproduction) was 0.315 mg/kg. It also gave an LR50 [10] of 0.675 g/ha.

— EPA's ToxValDB 9.5 (doi:10.2903/j.efsa.2016.4515)
